Test results: US20170190671A1, “BIS(ARYL)CATECHOL DERIVATIVES AS HERBICIDES” (E I DU PONT DE NEMOURS AND COMPANY, priority 2014, published 2017)

Columns and labels:
[1] = test system: wild oat (Avenafatua); assay: Test D preemergence; type: in vivo, Avena fatua; conditions: scale 0 to 100
In short: (§1)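 Seeds were sown in silt loam for preemergence treatment, or in peat/vermiculite medium for postemergence sprays at 2–18 cm (1- to 4-leaf stage). Test chemicals were in a non-phytotoxic solvent with surfactant. After 14–21 days in a controlled environment, plants were visually rated against controls on a 0–100 scale (0 no effect, 100 complete control).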

[2] = test system: windgrass (Apera spica-venti); assay: Test D postemergence; type: in vivo; conditions: scale 0 to 100
In short: as §1

[3] = test system: canarygrass (Phalaris minor); assay: Test D postemergence; type: in vivo; conditions: scale 0 to 100
In short: as §1

[4] = test system: pigweed (Amaranthus retroflexus); assay: Test D postemergence; type: in vivo; conditions: scale 0 to 100
In short: as §1

[5] = test system: oilseed rape (Brassica napus); assay: Test D postemergence; type: in vivo; conditions: scale 0 to 100
In short: as §1

[6] = test system: chickweed (common chickweed, Stellaria media); assay: Test D postemergence; type: in vivo; conditions: scale 0 to 100
In short: as §1

[7] = test system: downy bromegrass (Bromus tectorum); assay: Test D postemergence; type: in vivo; conditions: scale 0 to 100
In short: as §1

[8] = test system: field poppy (Papaver rhoeas); assay: Test D postemergence; type: in vivo; conditions: scale 0 to 100
In short: as §1

[9] = test system: Italian ryegrass (Lolium multiflorum); assay: Test D postemergence; type: in vivo; conditions: scale 0 to 100
In short: as §1

[10] = test system: bluegrass (annual bluegrass, Poa annua); assay: Test D postemergence; type: in vivo; conditions: scale 0 to 100
In short: as §1

[11] = test system: wild buckwheat (Polygonum convolvulus); assay: Test D postemergence; type: in vivo; conditions: scale 0 to 100
In short: as §1

[12] = test system: blackgrass (Alopecurus myosuroides); assay: Test D postemergence; type: in vivo; conditions: scale 0 to 100
In short: as §1

[13] = test system: velvetleaf (Abutilon theophrasti); assay: Test A postemergence; type: in vivo; conditions: 0 to 100 scale
In short: (§2)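 Scoring: eye-based comparison with untreated controls, 0 for no effect through 100 for complete control, at about day 10. Treatments: directed soil spray preemergence; foliar spray postemergence on 2–10 cm plants at the one- to two-leaf stage. Medium: loam soil with sand.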

[14] = test system: large (Lg) crabgrass (Digitaria sanguinalis); assay: Test A postemergence; type: in vivo; conditions: 0 to 100 scale
In short: as §2

[15] = test system: morningglory (Ipomoea spp.); assay: Test A postemergence; type: in vivo; conditions: 0 to 100 scale
In short: as §2

In the case of `N#Cc1cccc(Oc2ncc(Cl)cn2)c1Oc1ncc(Cl)cn1` [Compound 3, 2,3-bis[(5-chloro-2-pyrimidinyl)oxy]benzonitrile], the “Plant response rating, Oat, Wild” value ([1]; 16 g ai/ha) is reported as 0, the “Plant response rating, Oat, Wild” value ([1]; 31 g ai/ha) is reported as 0 and the “Plant response rating, Oat, Wild” value ([1]; 62 g ai/ha) is reported as 0. For the same compound, the “Plant response rating, Oat, Wild” value ([1]; 125 g ai/ha) was 50, the “Plant response rating, Windgrass” value ([2]; 16 g ai/ha) was 10 and the “Plant response rating, Windgrass” value ([2]; 31 g ai/ha) was 15. For the same compound, the “Plant response rating, Windgrass” value ([2]; 62 g ai/ha) was 25, the “Plant response rating, Windgrass” value ([2]; 125 g ai/ha) was 30 and the “Plant response rating, Canarygrass” value ([3]; 16 g ai/ha) was 5. For the same compound, the “Plant response rating, Canarygrass” value ([3]; 31 g ai/ha) was 10, the “Plant response rating, Canarygrass” value ([3]; 62 g ai/ha) was 15 and the “Plant response rating, Canarygrass” value ([3]; 125 g ai/ha) was 20. For the same compound, the “Plant response rating, Pigweed” value ([4]; 16 g ai/ha) was 100, the “Plant response rating, Pigweed” value ([4]; 31 g ai/ha) was 100 and the “Plant response rating, Pigweed” value ([4]; 62 g ai/ha) was 100. The “Plant response rating, Pigweed” value ([4]; 125 g ai/ha) was 100, the “Plant response rating, Oilseed Rape” value ([5]; 16 g ai/ha) was 40 and the “Plant response rating, Oilseed Rape” value ([5]; 31 g ai/ha) was 55. For the same compound, the “Plant response rating, Oilseed Rape” value ([5]; 62 g ai/ha) was 60, the “Plant response rating, Oilseed Rape” value ([5]; 125 g ai/ha) was 90 and the “Plant response rating, Chickweed” value ([6]; 16 g ai/ha) was 50. For the same compound, the “Plant response rating, Chickweed” value ([6]; 31 g ai/ha) was 70, the “Plant response rating, Chickweed” value ([6]; 62 g ai/ha) was 80 and the “Plant response rating, Chickweed” value ([6]; 125 g ai/ha) was 100. The “Plant response rating, Bromegrass, Downy” value ([7]; 16 g ai/ha) was 10, the “Plant response rating, Bromegrass, Downy” value ([7]; 31 g ai/ha) was 20 and the “Plant response rating, Bromegrass, Downy” value ([7]; 62 g ai/ha) was 25. The “Plant response rating, Bromegrass, Downy” value ([7]; 125 g ai/ha) was 25, the “Plant response rating, Field Poppy” value ([8]; 16 g ai/ha) was 35 and the “Plant response rating, Field Poppy” value ([8]; 31 g ai/ha) was 40. The “Plant response rating, Field Poppy” value ([8]; 62 g ai/ha) was 55, the “Plant response rating, Field Poppy” value ([8]; 125 g ai/ha) was 70 and the “Plant response rating, Ryegrass, Italian” value ([9]; 16 g ai/ha) was 0. For the same compound, the “Plant response rating, Ryegrass, Italian” value ([9]; 31 g ai/ha) was 10, the “Plant response rating, Ryegrass, Italian” value ([9]; 62 g ai/ha) was 10 and the “Plant response rating, Ryegrass, Italian” value ([9]; 125 g ai/ha) was 15. The “Plant response rating, Bluegrass” value ([10]; 16 g ai/ha) was 15, the “Plant response rating, Bluegrass” value ([10]; 31 g ai/ha) was 20 and the “Plant response rating, Bluegrass” value ([10]; 62 g ai/ha) was 25. The “Plant response rating, Bluegrass” value ([10]; 125 g ai/ha) was 30, the “Plant response rating, Buckwheat, Wild” value ([11]; 16 g ai/ha) was 85 and the “Plant response rating, Buckwheat, Wild” value ([11]; 31 g ai/ha) was 90. The “Plant response rating, Buckwheat, Wild” value ([11]; 62 g ai/ha) was 95, the “Plant response rating, Buckwheat, Wild” value ([11]; 125 g ai/ha) was 100 and the “Plant response rating, Blackgrass” value ([12]; 16 g ai/ha) was 5. For the same compound, the “Plant response rating, Blackgrass” value ([12]; 31 g ai/ha) was 10, the “Plant response rating, Blackgrass” value ([12]; 62 g ai/ha) was 15 and the “Plant response rating, Blackgrass” value ([12]; 125 g ai/ha) was 20. For the same compound, the “Plant response rating, Velvetleaf” value ([13]; 125 g ai/ha) was 100, the “Plant response rating, Velvetleaf” value ([13]; 500 g ai/ha) was 100 and the “Plant response rating, Crabgrass, Large” value ([14]; 125 g ai/ha) was 90. For the same compound, the “Plant response rating, Crabgrass, Large” value ([14]; 500 g ai/ha) was 90, the “Plant response rating, Morningglory” value ([15]; 125 g ai/ha) was 100 and the “Plant response rating, Morningglory” value ([15]; 500 g ai/ha) was 100.
